According to patent publication US8952024B2, “Herbicidal pyrimidone derivatives” (E I du Pont de Nemours and Company, priority 2009, dated 2015):

Legend:
Format in all cases: in vivo
[1] = tested on: Surinam grass (Brachiaria decumbens); assay: Test B pre-/postemergence plant response; conditions: for Plant response rating, Surinam Grass: Postemergence
Text: (§1) Seeds of plant species selected from blackgrass (Alopecurus myosuroides), downy bromegrass (Bromus tectorum), green foxtail (Setaria viridis), Italian ryegrass (Lolium multiflorum), wheat (Triticum aestivum), wild oat (Avena fatua), deadnettle (henbit deadnettle, Lamium amplexicaule), galium (catchweed bedstraw, Galium aparine), bermudagrass (Cynodon dactylon), Surinam grass (Brachiaria decumbens), cocklebur (Xanthium strumarium), corn (Zea mays), large crabgrass (Digitaria sanguinalis), woolly cupgrass (Eriochloa villosa), giant foxtail (Setaria faberii), goosegrass (Eleusine indica), johnsongrass (Sorghum halepense), kochia (Kochia scoparia), lambsquarters (Chenopodium album), morningglory (Ipomoea coccinea), nightshade (eastern black nightshade, Solanum ptycanthum), yellow nutsedge (Cyperus esculentus), pigweed (Amaranthus retroflexus), ragweed (common ragweed, Ambrosia elatior), Russian thistle (Salsola kali), soybean (Glycine max), sunflower (common oilseed sunflower, Helianthus annuus) and velvetleaf (Abutilon theophrasti) were planted into a blend of loam soil and sand and treated preemergence with test compounds formulated in a non-phytotoxic solvent mixture which included a surfactant.
(§2) At the same time, plants selected from these crop and weed species and also winter barley (Hordeum vulgare), canarygrass (Phalaris minor), chickweed (Stellaria media) and windgrass (Apera spica-venti) were planted in pots containing Redi-Earth® planting medium (Scotts Company, 14111 Scottslawn Road, Marysville, Ohio 43041) comprising spaghnum peat moss, vermiculite, wetting agent and starter nutrients and treated with postemergence applications of some of the test chemicals formulated in the same manner. Plants ranged in height from 2 to 18 cm (1- to 4-leaf stage) for postemergence treatments.
(§3) Treated plants and controls were maintained in a greenhouse for 13 to 15 days, after which time all treated plants were visually evaluated and compared to controls. Plant response ratings, summarized in Table B, are based on a scale of 0 to 100 where 0 is no effect and 100 is complete control. A dash (-) response means no test result.

[2] = tested on: blackgrass (Alopecurus myosuroides); assay: Test B pre-/postemergence plant response; conditions: for Blackgrass plant response rating (0 to 100 scale): 62 g ai/ha, 0 is no effect
Text: as §1, §2, §3

[3] = tested on: corn (Zea mays); assay: Test B pre-/postemergence plant response
Text: as §1, §2, §3

[4] = tested on: pigweed (Amaranthus retroflexus); assay: Test B pre-/postemergence plant response
Text: as §1, §2, §3

[5] = tested on: morningglory (Ipomoea coccinea); assay: Test B pre-/postemergence plant response
Text: as §1, §2, §3

[6] = tested on: giant foxtail (Setaria faberii); assay: Test B pre-/postemergence plant response
Text: as §1, §2, §3

[7] = tested on: downy bromegrass (Bromus tectorum); assay: Test B pre-/postemergence plant response; conditions: for Bromegrass, Downy plant response rating (0 to 100 scale): 62 g ai/ha, 0 is no effect
Text: as §1, §2, §3

[8] = tested on: wild oat (Avena fatua); assay: Test B pre-/postemergence plant response
Text: as §1, §2, §3

[9] = tested on: Italian ryegrass (Lolium multiflorum); assay: Test B pre-/postemergence plant response; conditions: for Plant response rating, Ryegrass, Italian: Postemergence
Text: as §1, §2, §3

[10] = tested on: cocklebur (Xanthium strumarium); assay: Test B pre-/postemergence plant response
Text: as §1, §2, §3

[11] = tested on: windgrass (Apera spica-venti); assay: Test B postemergence plant response; conditions: for Plant response rating, Windgrass: Postemergence
Method in brief: (§4)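 Plants grown in peat/vermiculite medium were sprayed postemergence at 2–18 cm height (1- to 4-leaf stage). After 13–15 days in the greenhouse, response was rated visually against untreated controls on a 0–100 scale (0 no effect, 100 complete control).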

[12] = tested on: canarygrass (Phalaris minor); assay: Test B postemergence plant response
Method in brief: as §4

[13] = tested on: chickweed (Stellaria media); assay: Test B postemergence plant response
Method in brief: as §4

[14] = 31 g ai/ha, 0 to 100 scale (0 no effect, 100 complete control)
[15] = 125 g ai/ha, scale 0 to 100 (0 no effect, 100 complete control)
[16] = 250 g ai/ha, scale 0 to 100 (0 no effect, 100 complete control), 13 to 15 days
[17] = postemergence, 100 is complete control, 13 to 15 days
[18] = Postemergence, 31 g ai/ha, 0 to 100 scale (0 no effect, 100 complete control)
[19] = Postemergence, 125 g ai/ha, scale 0 to 100 (0 no effect, 100 complete control)
[20] = Postemergence, 250 g ai/ha, scale 0 to 100 (0 no effect, 100 complete control), 13 to 15 days
[21] = 62 g ai/ha, postemergence, 0 is no effect, 100 is complete control, 13 to 15 days
[22] = 250 g ai/ha, scale 0 to 100 (0 no effect, 100 complete control)
[23] = 31 g ai/ha, postemergence, scale 0 to 100, 0 is no effect, 100 is complete control
[24] = Postemergence, 250 g ai/ha, scale 0 to 100 (0 no effect, 100 complete control)

With `O=C1CCCC(O)=C1C(=O)c1cnc(-c2cc(F)cc(F)c2)n(C2CCCCC2)c1=O` [Compound 181] as the molecule, how does the “Plant response rating, Surinam Grass” value [1, 14] read?
The value was 70.

And the “Plant response rating, Surinam Grass” value [1, 15]?
Its value is 95.

And the “Plant response rating, Surinam Grass” value [1, 16]?
Its value is 100.

What about the “Blackgrass plant response rating (0 to 100 scale)” value [2, 17] of the same molecule?
The value was 5.

What about the “Plant response rating, Blackgrass” value [2, 18] of the same molecule?
The value was 0.

What about the “Plant response rating, Blackgrass” value [2, 19] of the same molecule?
Its value is 15.

What about the “Plant response rating, Blackgrass” value [2, 20] of the same molecule?
Its value is 15.

What about the “Plant response rating, Corn” value [3, 18] of the same molecule?
Its value is 70.

And the “Plant response rating, Corn” value [3, 19]?
Its value is 95.

And the “Plant response rating, Corn” value [3, 20]?
The value was 95.

And the “Plant response rating, Pigweed” value [4, 18]?
Its value is 100.

What about the “Plant response rating, Pigweed” value [4, 19] of the same molecule?
The value was 100.

What about the “Plant response rating, Pigweed” value [4, 20] of the same molecule?
The value was 100.

What about the “Plant response rating, Morningglory” value [5, 18] of the same molecule?
The value was 95.

And the “Plant response rating, Morningglory” value [5, 19]?
Its value is 100.

What about the “Plant response rating, Morningglory” value [5, 20] of the same molecule?
Its value is 100.

What about the “Plant response rating, Foxtail, Giant” value [6, 18] of the same molecule?
The value was 98.

What about the “Plant response rating, Foxtail, Giant” value [6, 19] of the same molecule?
Its value is 100.

What about the “Plant response rating, Foxtail, Giant” value [6, 20] of the same molecule?
The value was 100.

And the “Bromegrass, Downy plant response rating (0 to 100 scale)” value [7, 17]?
The value was 50.

And the “Plant response rating, Bromegrass, Downy” value [7, 18]?
Its value is 40.

What about the “Plant response rating, Bromegrass, Downy” value [7, 19] of the same molecule?
Its value is 60.

What about the “Plant response rating, Bromegrass, Downy” value [7, 20] of the same molecule?
The value was 85.

And the “Plant response rating, Oat, Wild” value [8, 18]?
The value was 65.

What about the “Plant response rating, Oat, Wild” value [8, 19] of the same molecule?
The value was 90.

What about the “Plant response rating, Oat, Wild” value [8, 20] of the same molecule?
Its value is 100.

What about the “Plant response rating, Ryegrass, Italian” value [9, 14] of the same molecule?
Its value is 10.

What about the “Plant response rating, Ryegrass, Italian” value [9, 15] of the same molecule?
Its value is 60.

And the “Plant response rating, Ryegrass, Italian” value [9, 16]?
The value was 65.

And the “Plant response rating, Cocklebur” value [10, 18]?
Its value is 100.

And the “Plant response rating, Cocklebur” value [10, 19]?
Its value is 100.

And the “Plant response rating, Cocklebur” value [10, 20]?
The value was 100.

And the “Plant response rating, Windgrass” value [11, 14]?
Its value is 40.

What about the “Plant response rating, Windgrass” value [11, 15] of the same molecule?
The value was 60.

And the “Plant response rating, Windgrass” value [11, 16]?
The value was 65.

What about the “Plant response rating, Canarygrass” value [12, 18] of the same molecule?
Its value is 50.

What about the “Plant response rating, Canarygrass” value [12, 19] of the same molecule?
The value was 85.

What about the “Plant response rating, Canarygrass” value [12, 20] of the same molecule?
Its value is 90.

And the “Plant response rating, Chickweed” value [13, 18]?
Its value is 100.

And the “Plant response rating, Chickweed” value [13, 19]?
Its value is 100.

What about the “Plant response rating, Chickweed” value [13, 20] of the same molecule?
Its value is 100.

Which “Surinam Grass plant response rating (0 to 100 scale)” value [1, 21] does the source give for `COCCn1c(-c2cccc(C)c2)ncc(C(=O)C2=C(O)CCCC2=O)c1=O` [Compound 117] here?
Its value is 75.

What about the “Plant response rating, Surinam Grass” value [1, 22] of the same molecule?
Its value is 85.

And the “Plant response rating, Blackgrass” value [2, 23]?
Its value is 0.

What about the “Blackgrass plant response rating (0 to 100 scale)” value [2, 17] of the same molecule?
The value was 10.

And the “Plant response rating, Blackgrass” value [2, 19]?
The value was 40.

What about the “Plant response rating, Blackgrass” value [2, 24] of the same molecule?
The value was 40.

What about the “Plant response rating, Corn” value [3, 23] of the same molecule?
The value was 10.

And the “Corn plant response rating (0 to 100 scale)” value [3, 21]?
Its value is 15.

And the “Plant response rating, Corn” value [3, 19]?
The value was 25.

And the “Plant response rating, Corn” value [3, 24]?
The value was 25.

What about the “Plant response rating, Pigweed” value [4, 23] of the same molecule?
Its value is 95.

What about the “Pigweed plant response rating (0 to 100 scale)” value [4, 21] of the same molecule?
The value was 98.

What about the “Plant response rating, Pigweed” value [4, 24] of the same molecule?
Its value is 100.

And the “Plant response rating, Morningglory” value [5, 23]?
The value was 10.

And the “Morningglory plant response rating (0 to 100 scale)” value [5, 21]?
The value was 75.

And the “Plant response rating, Morningglory” value [5, 19]?
Its value is 80.

What about the “Plant response rating, Morningglory” value [5, 24] of the same molecule?
Its value is 100.

What about the “Plant response rating, Foxtail, Giant” value [6, 23] of the same molecule?
The value was 65.

What about the “Foxtail, Giant plant response rating (0 to 100 scale)” value [6, 21] of the same molecule?
Its value is 75.

What about the “Plant response rating, Foxtail, Giant” value [6, 19] of the same molecule?
The value was 80.

What about the “Plant response rating, Foxtail, Giant” value [6, 24] of the same molecule?
Its value is 95.

And the “Plant response rating, Bromegrass, Downy” value [7, 23]?
Its value is 5.

What about the “Bromegrass, Downy plant response rating (0 to 100 scale)” value [7, 17] of the same molecule?
The value was 10.

What about the “Plant response rating, Bromegrass, Downy” value [7, 19] of the same molecule?
The value was 15.

What about the “Plant response rating, Bromegrass, Downy” value [7, 24] of the same molecule?
The value was 45.

What about the “Plant response rating, Oat, Wild” value [8, 23] of the same molecule?
Its value is 5.

What about the “Oat, Wild plant response rating (0 to 100 scale)” value [8, 21] of the same molecule?
The value was 10.

What about the “Plant response rating, Oat, Wild” value [8, 19] of the same molecule?
Its value is 30.

What about the “Plant response rating, Oat, Wild” value [8, 24] of the same molecule?
The value was 35.

What about the “Ryegrass, Italian plant response rating (0 to 100 scale)” value [9, 21] of the same molecule?
The value was 10.

What about the “Plant response rating, Ryegrass, Italian” value [9, 15] of the same molecule?
Its value is 15.

And the “Plant response rating, Ryegrass, Italian” value [9, 22]?
The value was 50.

And the “Plant response rating, Cocklebur” value [10, 23]?
The value was 75.

And the “Cocklebur plant response rating (0 to 100 scale)” value [10, 21]?
Its value is 75.

What about the “Plant response rating, Cocklebur” value [10, 19] of the same molecule?
The value was 98.

And the “Plant response rating, Cocklebur” value [10, 24]?
Its value is 100.

And the “Windgrass plant response rating (0 to 100 scale)” value [11, 21]?
The value was 45.

And the “Plant response rating, Windgrass” value [11, 15]?
Its value is 65.

And the “Plant response rating, Canarygrass” value [12, 23]?
The value was 0.

And the “Canarygrass plant response rating (0 to 100 scale)” value [12, 21]?
Its value is 0.

What about the “Plant response rating, Canarygrass” value [12, 19] of the same molecule?
Its value is 5.

What about the “Plant response rating, Canarygrass” value [12, 24] of the same molecule?
Its value is 5.

What about the “Plant response rating, Chickweed” value [13, 23] of the same molecule?
The value was 85.

What about the “Chickweed plant response rating (0 to 100 scale)” value [13, 21] of the same molecule?
The value was 95.

What about the “Plant response rating, Chickweed” value [13, 19] of the same molecule?
Its value is 98.

And the “Plant response rating, Chickweed” value [13, 24]?
The value was 100.
